Experimental data reported in publication PMC7187413 (Journal of medicinal chemistry, 2020).
“Also recorded” adds a separate entry of the source. Values belong to the compound of their own block, whether it stands above or below them.

How the values were obtained:
MYC bound to chromatin = assay: ChIP-qPCR of MYC binding to target genes in c-MYC-HA overexpressing HEK293 cells; type: cell-based, human; details: 20 μM, 10 h
[1] = tested on: WDR5 binding to chromatin; assay: ChIP of WDR5 binding to chromatin at MYC target genes in HEK293 cells; type: cell-based, human; details: cells treated with 12 versus N.C.
[2] = biological target: MLL-1 in the full WDR5, RBBP5, ASH2L, and DPY30 (WRAD) complex (Homo sapiens, UniProt P61964); assay: Biochemical histone methyltransferase assay; details: Supplemental Table 4
WDR5 = WDR5 (Homo sapiens, UniProt P61964); assay: Competition fluorescence polarization-based assay
WDR5-MYC complex = WDR5-MYC complex (Homo sapiens, UniProt P61964); assay: Co-IP target engagement in whole; type: cell-based; details: transformed HEK293 cells, 5 μM compound, 24 h

Compound: CS(=O)(=O)c1nc(NS(=O)(=O)c2cc(Br)cc(Cl)c2O)cn1C1CCCC1 [Compound 12]
- amount of MYC at loci where MYC recruitment is dependent on WDR5 (MYC bound to chromatin; C7orf40, RNPS1, RPS14, RPL5): reduction in the amount of MYC; also recorded: reduce the amount of MYC bound to chromatin
- amount of MYC at sites where MYC binding is independent of WDR5 (MYC bound to chromatin; ZFPM1 and ZNF771): remained nearly unaffected; also recorded: did not affect binding of MYC
- WDR5 binding to chromatin at MYC target loci [1]: comparable levels
- inhibition of histone methyltransferase activity of MLL-1 [2]: inhibited

Compound: 5-Bromo-3-chloro-N-(1-cyclopentyl-2-(4-(pyrrolidin-3-yl)piperidine-1-carbonyl)-1H-imidazol-4-yl)-2-hydroxybenzenesulfonamide [Compound 9]
- Kd (WDR5; read-out: FPA Kd, competition with FITC-labeled small molecule, average of at least 3 independent replicates ± standard deviation): 5 ± 1 µM

Compound: CNC(=O)c1nc(NS(=O)(=O)c2cc(Br)cc(Cl)c2O)cn1C1CCCC1 [Compound 8, 4-((5-Bromo-3-chloro-2-hydroxyphenyl)sulfonamido)-1-cyclopentyl-N-methyl-1H-imidazole-2-carboxamide]
- inhibition of histone methyltransferase activity of MLL-1 [2]: inhibited

Compound: CCOC(=O)c1nc(NS(=O)(=O)c2cc(Br)cc(Cl)c2O)cn1C1CCCC1 [Compound 6, Ethyl 4-((5-bromo-3-chloro-2-hydroxyphenyl)sulfonamido)-1-cyclopentyl-1H-imidazole-2-carboxylate]
- inhibition of histone methyltransferase activity of MLL-1 [2]: inhibited

Next, values leading:

- inhibition of histone methyltransferase activity of MLL-1 [2]: inhibited
Compound: O=S(=O)(Nc1cnn(C2CCCC2)c1)c1cc(Br)cc(Cl)c1O [Compound 3d, 5-Bromo-3-chloro-N-(1-cyclopentyl-1H-pyrazol-4-yl)-2-hydroxybenzenesulfonamide]

- fold improvement in the binding affinity compared to 2a (WDR5; FPA Kd relative to 2a): 2.5 fold
- WDR5-MYC complex formation in whole cells relative to DMSO (WDR5-MYC complex): decreased complex formation
Compound: O=S(=O)(Nc1cn(C2CCCC2)cn1)c1cc(Br)cc(Cl)c1O [Compound 2i, 5-Bromo-3-chloro-N-(1-cyclopentyl-1H-imidazol-4-yl)-2-hydroxybenzenesulfonamide]
